Results on four compounds are retold here after ChEMBL document CHEMBL3991601, “The target landscape of clinical kinase drugs” (Science, 2017).

The Kd is the equilibrium constant for the complex coming apart.

The source made the active and inactive calls. Cut-off read from the data, not from the text of the source, for most assays here: actives have a measured Kd and inactives only a lower limit. Some results are limits rather than exact numbers.

The target of assay [1] is T1, Serine/threonine-protein kinase PLK4 (Homo sapiens, UniProt O00444).
T1 sequence (O00444 whole entry): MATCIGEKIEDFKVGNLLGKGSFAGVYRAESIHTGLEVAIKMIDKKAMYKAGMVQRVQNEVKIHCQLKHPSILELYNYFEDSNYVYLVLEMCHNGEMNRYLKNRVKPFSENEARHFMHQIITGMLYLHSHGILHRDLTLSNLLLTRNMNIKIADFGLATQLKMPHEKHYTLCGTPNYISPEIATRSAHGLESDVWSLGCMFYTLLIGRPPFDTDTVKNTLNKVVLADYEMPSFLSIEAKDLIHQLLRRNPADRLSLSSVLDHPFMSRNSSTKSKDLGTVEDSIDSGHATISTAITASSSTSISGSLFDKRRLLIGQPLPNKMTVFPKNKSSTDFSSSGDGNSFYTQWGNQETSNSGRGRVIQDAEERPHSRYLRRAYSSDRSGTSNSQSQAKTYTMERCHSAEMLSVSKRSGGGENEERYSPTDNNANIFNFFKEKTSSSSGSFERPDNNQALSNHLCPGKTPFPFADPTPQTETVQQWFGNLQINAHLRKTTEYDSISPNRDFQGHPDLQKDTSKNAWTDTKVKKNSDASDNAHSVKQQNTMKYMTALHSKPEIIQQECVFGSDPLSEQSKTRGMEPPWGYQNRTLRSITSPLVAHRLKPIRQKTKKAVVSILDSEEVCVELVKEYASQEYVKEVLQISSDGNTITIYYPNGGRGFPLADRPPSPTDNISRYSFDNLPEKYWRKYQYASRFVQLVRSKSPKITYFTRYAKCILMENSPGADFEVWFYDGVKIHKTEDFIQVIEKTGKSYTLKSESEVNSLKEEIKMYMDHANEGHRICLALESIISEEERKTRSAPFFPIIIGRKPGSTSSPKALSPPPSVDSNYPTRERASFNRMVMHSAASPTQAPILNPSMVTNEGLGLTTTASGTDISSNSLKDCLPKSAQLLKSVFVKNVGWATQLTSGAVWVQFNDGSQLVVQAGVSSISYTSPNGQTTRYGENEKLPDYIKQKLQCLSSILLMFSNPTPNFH

The target in assay [2] is T2, Phenylalanine--tRNA ligase beta subunit (Homo sapiens, UniProt Q9NSD9).
T2 sequence (Q9NSD9 whole entry): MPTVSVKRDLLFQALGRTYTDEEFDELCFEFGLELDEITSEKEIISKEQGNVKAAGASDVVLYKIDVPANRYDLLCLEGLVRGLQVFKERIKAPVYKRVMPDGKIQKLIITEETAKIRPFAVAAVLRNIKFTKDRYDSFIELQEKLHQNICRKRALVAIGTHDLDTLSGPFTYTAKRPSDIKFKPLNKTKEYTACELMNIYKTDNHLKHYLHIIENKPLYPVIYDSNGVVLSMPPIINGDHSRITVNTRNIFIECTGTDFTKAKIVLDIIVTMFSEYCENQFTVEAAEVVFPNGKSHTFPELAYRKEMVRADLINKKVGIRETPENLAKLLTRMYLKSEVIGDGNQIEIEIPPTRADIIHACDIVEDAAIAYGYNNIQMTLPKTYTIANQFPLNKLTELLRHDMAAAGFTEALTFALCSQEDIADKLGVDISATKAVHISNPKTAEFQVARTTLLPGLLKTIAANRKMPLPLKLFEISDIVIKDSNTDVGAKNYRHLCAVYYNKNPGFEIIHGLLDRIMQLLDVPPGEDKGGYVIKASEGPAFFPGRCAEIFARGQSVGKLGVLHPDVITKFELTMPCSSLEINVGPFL

For assay [3], the target named is Dual specificity mitogen-activated protein kinase kinase 1 (Homo sapiens, UniProt Q02750).
Sequence of Dual specificity mitogen-activated protein kinase kinase 1 (Q02750 whole entry, the tested form may be a part): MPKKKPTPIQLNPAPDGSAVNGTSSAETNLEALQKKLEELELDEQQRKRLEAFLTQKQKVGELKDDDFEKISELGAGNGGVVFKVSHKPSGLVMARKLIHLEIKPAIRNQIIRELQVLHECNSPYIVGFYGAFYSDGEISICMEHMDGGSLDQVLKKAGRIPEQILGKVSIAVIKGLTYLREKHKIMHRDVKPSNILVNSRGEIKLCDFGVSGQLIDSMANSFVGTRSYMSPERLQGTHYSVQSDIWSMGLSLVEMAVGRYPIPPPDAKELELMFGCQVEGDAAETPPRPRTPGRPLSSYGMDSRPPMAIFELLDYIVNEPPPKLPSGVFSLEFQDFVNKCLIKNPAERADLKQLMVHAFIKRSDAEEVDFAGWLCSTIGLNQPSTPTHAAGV
In assay [4] the target is T3, Discoidin domain-containing receptor 2 (Homo sapiens, UniProt Q16832).
T3 sequence (Q16832 whole entry): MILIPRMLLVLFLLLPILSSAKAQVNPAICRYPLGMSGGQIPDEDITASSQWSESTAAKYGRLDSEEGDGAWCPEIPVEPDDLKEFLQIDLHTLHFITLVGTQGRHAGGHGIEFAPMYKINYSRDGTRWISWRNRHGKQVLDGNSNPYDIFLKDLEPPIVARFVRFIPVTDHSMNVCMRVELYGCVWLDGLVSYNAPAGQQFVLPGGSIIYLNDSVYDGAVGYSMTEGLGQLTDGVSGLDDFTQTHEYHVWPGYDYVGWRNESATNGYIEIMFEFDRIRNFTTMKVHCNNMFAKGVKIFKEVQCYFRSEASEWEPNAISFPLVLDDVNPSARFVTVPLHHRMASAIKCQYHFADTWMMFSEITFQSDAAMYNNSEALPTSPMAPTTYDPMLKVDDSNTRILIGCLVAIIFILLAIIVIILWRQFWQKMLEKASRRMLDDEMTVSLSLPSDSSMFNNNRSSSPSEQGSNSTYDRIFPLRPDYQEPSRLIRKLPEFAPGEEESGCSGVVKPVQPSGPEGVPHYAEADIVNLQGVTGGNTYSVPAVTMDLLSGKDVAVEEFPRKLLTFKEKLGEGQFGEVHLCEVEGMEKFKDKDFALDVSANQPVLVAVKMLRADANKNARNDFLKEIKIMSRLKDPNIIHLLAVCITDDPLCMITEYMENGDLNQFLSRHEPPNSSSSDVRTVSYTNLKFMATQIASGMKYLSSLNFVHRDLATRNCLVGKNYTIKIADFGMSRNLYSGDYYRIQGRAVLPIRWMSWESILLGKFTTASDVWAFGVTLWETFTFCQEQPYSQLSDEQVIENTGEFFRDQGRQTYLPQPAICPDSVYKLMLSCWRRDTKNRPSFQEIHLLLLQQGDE

The target in assay [5] is DnaJ homolog subfamily A member 1 (Homo sapiens, UniProt P31689).
Sequence of DnaJ homolog subfamily A member 1 (P31689 whole entry): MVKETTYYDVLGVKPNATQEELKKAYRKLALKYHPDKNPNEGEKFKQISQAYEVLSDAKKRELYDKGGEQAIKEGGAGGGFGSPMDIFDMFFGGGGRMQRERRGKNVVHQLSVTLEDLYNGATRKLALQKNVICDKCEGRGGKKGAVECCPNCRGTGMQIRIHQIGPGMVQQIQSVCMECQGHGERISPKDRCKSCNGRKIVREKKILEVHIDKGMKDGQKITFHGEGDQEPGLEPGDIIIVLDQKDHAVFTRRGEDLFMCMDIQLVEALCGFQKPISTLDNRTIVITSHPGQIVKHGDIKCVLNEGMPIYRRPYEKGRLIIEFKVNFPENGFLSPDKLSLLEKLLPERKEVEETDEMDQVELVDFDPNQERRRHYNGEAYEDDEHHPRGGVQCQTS
Assay [6] has as its target Serine/threonine-protein kinase 26 (Homo sapiens, UniProt Q9P289).
Note: in the data inactive means no Kd found up to 30 µM.

Sequence of Serine/threonine-protein kinase 26 (Q9P289 whole entry): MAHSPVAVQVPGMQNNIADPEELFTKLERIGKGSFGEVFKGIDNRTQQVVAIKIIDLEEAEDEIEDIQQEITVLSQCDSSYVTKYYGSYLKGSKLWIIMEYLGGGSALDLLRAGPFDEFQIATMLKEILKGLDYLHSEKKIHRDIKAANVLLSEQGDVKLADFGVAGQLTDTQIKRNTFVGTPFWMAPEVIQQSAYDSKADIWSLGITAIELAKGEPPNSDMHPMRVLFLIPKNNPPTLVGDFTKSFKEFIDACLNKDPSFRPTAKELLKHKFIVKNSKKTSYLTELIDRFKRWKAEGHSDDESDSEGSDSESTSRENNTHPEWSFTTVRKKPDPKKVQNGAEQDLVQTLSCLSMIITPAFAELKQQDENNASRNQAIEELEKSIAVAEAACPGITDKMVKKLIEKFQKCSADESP

As to `Cc1cc(Nc2ncnc3ccc(NC4=NC(C)(C)CO4)cc23)ccc1Oc1ccn2ncnc2c1` [TUCATINIB], the Kd in assay [1], in assay [2], in assay [3], in assay [4], in assay [5] and in assay [6] was > 30 µM (inactive) each time.
For the compound `CC(C)c1cc(CNc2nc(Nc3cc(C4CC4)[nH]n3)cc(N3CCN(C)CC3)n2)on1` [XL-228], the Kd in assay [1] is 0.003 µM (active); in assay [2] it was > 30 µM (inactive); in assay [3], 7.03 µM; in assay [4], 4.96 µM (active); in assay [5], > 30 µM (inactive); in assay [6] it was > 30 µM (inactive).
For the compound `C[C@@H](N)c1ccc(C(=O)Nc2ccnc3[nH]ccc23)cc1` [Y-39983], the Kd in assay [1], in assay [2], in assay [3], in assay [4], in assay [5] and in assay [6] was > 30 µM (inactive) in each case.
Take `CN1C/C=C/CCOc2cccc(c2)-c2ccnc(n2)Nc2cccc(c2)C1` [ZOTIRACICLIB]: the Kd in assay [1], in assay [2], in assay [3], in assay [4], in assay [5] and in assay [6] was > 30 µM (inactive) each time.
